# Experimental data: patent publication US20170137410A1, “FUSED CYCLOALKYL-PYRIMIDINE COMPOUNDS AND USES THEREOF” (Medivation Technologies, Inc., priority 2014, published 2017)
# Target: T1, FLT3 (Homo sapiens, UniProt P36888)
# T1 sequence (P36888 27-993): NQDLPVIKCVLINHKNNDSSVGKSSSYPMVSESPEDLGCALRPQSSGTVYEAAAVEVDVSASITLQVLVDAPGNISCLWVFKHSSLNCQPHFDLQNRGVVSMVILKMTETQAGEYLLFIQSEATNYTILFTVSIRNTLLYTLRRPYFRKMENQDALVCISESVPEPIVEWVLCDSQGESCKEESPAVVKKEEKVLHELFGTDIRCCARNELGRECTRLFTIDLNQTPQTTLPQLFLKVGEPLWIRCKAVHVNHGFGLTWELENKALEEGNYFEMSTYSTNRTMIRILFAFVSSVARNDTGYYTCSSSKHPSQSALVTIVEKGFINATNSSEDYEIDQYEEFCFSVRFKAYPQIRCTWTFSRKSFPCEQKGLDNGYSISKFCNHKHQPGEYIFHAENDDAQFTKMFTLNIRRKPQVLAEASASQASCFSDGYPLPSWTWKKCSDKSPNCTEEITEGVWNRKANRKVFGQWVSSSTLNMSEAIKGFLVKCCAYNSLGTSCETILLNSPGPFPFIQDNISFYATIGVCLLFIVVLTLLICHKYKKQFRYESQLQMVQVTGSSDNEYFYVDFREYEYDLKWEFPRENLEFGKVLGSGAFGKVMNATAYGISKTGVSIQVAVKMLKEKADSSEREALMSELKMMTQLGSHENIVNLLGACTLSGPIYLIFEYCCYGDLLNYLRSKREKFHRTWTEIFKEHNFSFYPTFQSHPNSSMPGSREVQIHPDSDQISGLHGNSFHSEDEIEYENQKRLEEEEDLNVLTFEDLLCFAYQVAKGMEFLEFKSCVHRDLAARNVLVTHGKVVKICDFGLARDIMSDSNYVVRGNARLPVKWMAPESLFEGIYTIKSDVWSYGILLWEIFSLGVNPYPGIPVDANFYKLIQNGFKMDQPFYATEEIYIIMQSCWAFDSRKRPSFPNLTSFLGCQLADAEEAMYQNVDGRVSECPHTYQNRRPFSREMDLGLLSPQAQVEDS
# Assay: HotSpot kinase assay against FLT3
# Type: biochemical
# Settings: HotSpot 33P assay, ATP 10 μM
# Experimental: Kinase assays were performed using test compounds against a panel of FLT3 kinases: FLT3; FLT3 (D835Y); and FLT3 (ITD). Compounds were prepared as 10 mM stock solutions in DMSO prior to use in the assay. Each compound was tested at 10 concentrations with three-fold serial dilution starting at 1 μM against the three kinases. The control compound, staurosporine, was tested at 10 concentrations with four-fold serial dilution starting at 20 μM. IC50 values and curve fits were obtained using Prism (GraphPad Software). The screening was performed using the “HotSpot” assay platform. The assay measures the conversion of a peptide substrate to ^33P-labelled phosphorylated product. Briefly, specific kinase/substrate pairs along with required cofactors were prepared in reaction buffer. Specifically, the substrate was prepared in reaction buffer (20 mM Hepes, pH 7.5; 10 mM MgCl2; 1 mM EGTA; 0.02% Brij35; 0.02 mg/mL BSA; 0.1 mM Na3VO4; 2 mM DTT; 1% DMSO), followed by delivery of any required cofactor to the resulting substrate solution. The corresponding kinase was delivered into the substrate solution and the reaction mixture was mixed gently. Compound was delivered into the reaction mixture, followed 15-20 min later by addition of a mixture of ATP (Sigma, St. Louis Mo.) and ^33P ATP (specific activity 0.01 μCi/μL final; Perkin Elmer, Waltham, Mass.) to a final concentration of 10 μM to initiate the reaction. Reactions were carried out at RT for 120 min, followed by spotting of the reactions onto P81 ion exchange filter paper (Whatman #3698-915; Whatman Inc., Piscataway, N.J.). Unbound phosphate was removed by extensive washing of filters in 0.75% phosphoric acid. […] The percent of enzyme inhibition was calculated based on the percent of remaining kinase activity. IC50 values were determined.
row,IC50,SMILES
1,798 nM,"CC1(C(=O)N2CCC(F)(F)CC2)CCCN1c1nc2c(c(Nc3cc(C4CCCC4)[nH]n3)n1)CCC2 (racemic) [compound 146, (1-(4-((5-cyclopentyl-1H-pyrazol-3-yl)amino)-6,7-dihydro-5H-cyclopenta[d]pyrimidin-2-yl)-2-methylpyrrolidin-2-yl)(4,4-difluoropiperidin-1-yl)methanone]"
2,112 nM,"CC(C)c1cc(Nc2nc(N3CCC[C@H]3C(=O)N(C)c3nccs3)nc3c2CCC3)n[nH]1 [68b, (S)-1-(4-((5-isopropyl-1H-pyrazol-3-yl)amino)-6,7-dihydro-5H-cyclopenta[d]pyrimidin-2-yl)-N-methyl-N-(thiazol-2-yl)pyrrolidine-2-carboxamide]"
3,> 1000 nM,"CC(C)(C)c1cc(Nc2nc(N3CCC[C@@H]3C(=O)N3CCC(F)(F)CC3)nc3c2CCC3)n[nH]1 [142a, (R)-(1-(4-((5-(tert-butyl)-1H-pyrazol-3-yl)amino)-6,7-dihydro-5H-cyclopenta[d]pyrimidin-2-yl)pyrrolidin-2-yl)(4,4-difluoropiperidin-1-yl)methanone]"
4,> 1000 nM,"CC(C)(C)c1cc(Nc2nc(N3CCC[C@H]3C(=O)N3CCC(F)(F)CC3)nc3c2CCC3)n[nH]1 [142b, (S)-(1-(4-((5-(tert-butyl)-1H-pyrazol-3-yl)amino)-6,7-dihydro-5H-cyclopenta[d]pyrimidin-2-yl)pyrrolidin-2-yl)(4,4-difluoropiperidin-1-yl)methanone]"
5,13.9 nM,"CCC(=O)N1CCN(C(=O)[C@H]2CCCN2c2nc3c(c(Nc4cc(C5CCCC5)[nH]n4)n2)CCC3)CC1 [143a, 1-(4-((4-((5-cyclopentyl-1H-pyrazol-3-yl)amino)-6,7-dihydro-5H-cyclopenta[d]pyrimidin-2-yl)-D-prolyl)piperazin-1-yl)propan-1-one]"
6,58 nM,"CCC(=O)N1CCN(C(=O)[C@@H]2CCCN2c2nc3c(c(Nc4cc(C5CCCC5)[nH]n4)n2)CCC3)CC1 [143b, (S)-1-(4-((4-((5-cyclopentyl-1H-pyrazol-3-yl)amino)-6,7-dihydro-5H-cyclopenta[d]pyrimidin-2-yl)prolyl)piperazin-1-yl)propan-1-one]"
7,> 1000 nM,"CCN(C(=O)[C@@H]1CCCN1c1nc2c(c(Nc3cc(C(C)(C)C)[nH]n3)n1)CCC2)c1nccs1 [144b, (S)-1-(4-((5-(tert-butyl)-1 H-pyrazol-3-yl)amino)-6,7-dihydro-5H-cyclopenta[d]pyrimidin-2-yl)-N-ethyl-N-(thiazol-2-yl)pyrrolidine-2-carboxamide]"
8,155 nM,"CCN(C(=O)[C@@H]1CCCN1c1nc2c(c(Nc3cc(C(C)C)[nH]n3)n1)CCC2)c1nccs1 [145b, (S)—N-ethyl-1-(4-((5-isopropyl-1H-pyrazol-3-yl)amino)-6,7-dihydro-5H-cyclopenta[d]pyrimidin-2-yl)-N-(thiazol-2-yl)pyrrolidine-2-carboxamide]"
